Source: patent US20060193844A1, “Methods for enzyme inhibition” (Proteolix, Inc., priority 2005, published 2006)

Experiments:
HT-29 cell line = test: Human xenograft model, tumor volume; format: in vivo; settings: dose equivalent to the MTD for this strain of mouse, clinical schedule; FIG. 4
Description: In a human xenograft model using an HT-29 cell line, proteasome inhibitors were administered using the indicated regimens.

[1] = twice weekly for two weeks (days 1, 4, 8 and 11) followed by a ten-day rest period; cited from earlier work
[2] = female rats; daily administration of doses that result in 80% inhibition of the proteasome; cited from earlier work
[3] = monkeys, cited from earlier work

For CC(C)C[C@H](NC(=O)[C@H](Cc1ccccc1)NC(=O)c1cnccn1)B(O)O [bortezomib], the anti-tumor response (HT-29 cell line) is listed as “unable to induce an anti-tumor response”, the “maximum tolerated dose (MTD)” value [1] is listed as 1.3 mg/m^2/dose and the lethality [2] is listed as 67%. The “highest daily dose without severe toxicity, fold less than the MTD on the clinical dosing schedule” value [3] was 20 fold and the “highest dose without severe toxicity” value ([3]; daily administered) was 0.5 mg/m^2.
